Results: patent US5869714A, “Salts of omega-3-polyunsaturated fatty acids and pharmaceutical formulations containing them” (Prospa B.V., priority 1994, dated 1999)
Where a name gives a salt, the structure may show the parent alone.

How the values were obtained:
[1] = system: erythrocyte phospholipids; assay: DHA content of erythrocyte phospholipids in healthy volunteers after 3 weeks oral treatment; format: in vivo; settings: 1 g of DHA daily for 3 weeks
Description: Considering that the phospholipid class of the erythrocyte membrane, along with the degree of unsaturation of the acyl chains, does condition red cell deformability and blood viscosity, it has been conducted a study to ascertain the effect of the salts in question on erythrocyte phospholipid composition, which we describe hereunder in illustration. 8 healthy volunteers were then selected and divided into 4 groups which were treated by oral route for 3 weeks with a daily quantity of DHA 1.0 g in the form of ethyl ester (1.1 g), sodium salt (1.1 g), choline salt (1.3 g) and ethanolamine salt (1.2 g). Before and after treatment samples of venous blood were collected and sodium citrate added, then the erythrocytes were isolated, washed for 3 times with saline solution (0.15M NaCl, pH 7.4) at 0° and again suspended in saline solution. 1-ml samples from the red cell suspensions were treated with 5 ml of methanol for 10 minutes then with 5 ml of chloroform containing 2 mg/100 ml of the antioxidant 2,6-di-tert.butyl-4-methyl-phenol (BHT). The organic solvents originating from 3 extractions were evaporated to dryness and the residue, formed by the erythrocyte phospholipids, was subjected to bidimensional chromatography according to Turner J. D. and Rouser G., Anal. Biochem. (Part 1--Erythrocyte lipids), 38, 423, 1970 to separate the different phospholipid classes: silica gel 60H (90 g, Merck) plus Fluorisil (7.2 g, BDH Chemicals) plates were used; the solvent systems consisted of chloroform:methanol: 25% ammonia:water (90:54:5.5:5.5) and chloroform:methanol:acetone:acetic acid:water (60:20:80:20:10). The various classes were identified against standard phospolipids (Sigma Chemical). A sample of total phospholipids and the various stains isolated were treated with 1.5 ml of boron trifluoride-methanol for 1 h at 65° C. under nitrogen, to prepare the methyl esters of the acids contained in the phospholipids to undergo gas-chromatography. To this end a Hewlet-Packard 5890 gas-chromatograph was used, fitted with a ionisation flame detector and with an HPl column 25 m in length and 0.31 mm in int. diameter; elium was used as the carrier gas, the injection port temperature was 320° C. and the detector temperature 340° C. The chamber temperature was programmed at 170° C. for 1 min., then increased by 4°°C./min up to 250° C. and kept at this temperature for 15 minutes.

[2] = system: arteriolar thrombus disaggregation; assay: thrombolytic action: arteriolar thrombus disaggregation time after electrical vascular damage in the hamster; format: in vivo, hamster (Mesocricetus auratus); settings: oral; for thrombolytic activity (in words): 10 days
Description: Through a different in vivo experimental model also the effect on thrombus formation and disaggregation was evaluated in the hamster, following vascular damage induced by electrical stimulation (thrombolytic action).
(§1) In the course of a typical experiment, male hamsters of the Mesocricetus auratus genus, weighing 95-115 g, were acclimatized for 1 week in the laboratory before starting the study, then semi-chronically treated by oral route, for 10 consecutive days with the products under examination. More precisely, the animals were divided into 4 groups: group I received the vehicle alone, group II received DHA ethyl ester 100 mg/kg (equivalent to DHA 92 mg/kg), group III and IV were given DHA 50 mg/kg in the form of ethanolamine salt (59.3 mg/kg) and choline salt (65.7 mg/kg respectively).One hour following the last dose the animals were anaesthetized with sodium pentobarbitone (90 mg/kg, i.p.), the cheek pouch everted with a cotton wool bud and the upper layer and the underlying a vascular connective tissue removed with ophthalmic scissors to expose the lower vascular layer which was then bathed with saline solution and examined under a Leitz Dialux microscope (magnification×250).
For the evaluation of the thrombolytic activity a micropipette was filled with 1.0M potassium chloride, applied to an arteriole of diameter 40-60μ and connected to a reference electrode placed in the animal's mouth. A negative potential was applied for 5 seconds using a Grass S48 stimulator to produce a current of 20-30 μA. A second micropipette containing 10^-2 M ADP was applied to the site of electrical damage and a negative potential applied, for 3 seconds. After the current was switched off, the time taken for the resultant thrombus to form and to disaggregate (about 40 seconds) was recorded using a stopwatch. The process of ADP stimulation of the arteriole damaged site was repeated several times and the mean was recorded of the values obtained over one hour and compared with that of the control animals.
The percentage change in the persistence of the thrombus adhering to the damaged site in the treated and untreated animals is therefore an index of the thrombolytic activity of the drug (Table 3).

[3] = system: thrombus growth rate induced by ADP in the hamster microvascular system; assay: in vivo antithrombotic action: growth rate of thrombus induced by ADP in hamster microvascular system; design: species or system hamster (Mesocricetus auratus); settings: oral; for percentage reduction in ADP-induced thrombus growth rate, of the order of max.: maximum; for antithrombotic activity (in words): 10 days
Description: Considered however that this action is not fully indicative of the possible therapeutic effects of a drug, we measured the in vivo effect of the new salts in extremely significant tests, by determining for instance, their effect on growth rate of a thrombus induced by a known aggregatory agent (adenosine diphosphate; ADP) in the hamster microvascular system (in vivo antithrombotic action).
as §1
Evaluation of the antithrombotic activity requires measuring the growth rate of a thrombus (white body) in the microcirculation induced by the iontophoresis of ADP from a micropipette through the vessel wall. A micropipette of diameter 12μ was filled with 10^-2 M solution of ADP connected with a silver/silver chloride reference electrode placed in the animal's mouth and applied to a venule of diameter 16-40μ. By applying a negative potential to the micropipette, ADP (2×10^-14moles per second) was injected which caused the formation of a white body (platelet thrombus) gradually growing from the wall of the venule. The growth rate of the thrombus was determined by the time taken for 30%, 50% and 90% of the white body to form, 100% referring to total occlusion of the vessel with stasis. When the current was switched off, the white body rapidly embolised and no new white bodies formed until the current was re-applied. Inhibition of thrombus growth rate was calculated by comparing measurements in treated animals with those obtained in the control group (Table 2).

[4] = water solubility; format: physicochemical
[5] = 60-70 minutes post-dose, equiv. to DHA 50 mg/kg × 10 days
[6] = 70-80 minutes post-dose, equiv. to DHA 50 mg/kg × 10 days
[7] = 80-90 minutes post-dose, equiv. to DHA 50 mg/kg × 10 days
[8] = 90-100 minutes post-dose, equiv. to DHA 50 mg/kg × 10 days
[9] = 100-110 minutes post-dose, equiv. to DHA 50 mg/kg × 10 days
[10] = 110-120 minutes post-dose, equiv. to DHA 50 mg/kg × 10 days
[11] = maximum, equiv. to DHA 50 mg/kg × 10 days
[12] = 60 minutes post-dose, equiv. to DHA 50 mg/kg × 10 days
[13] = 70 minutes post-dose, equiv. to DHA 50 mg/kg × 10 days
[14] = 80 minutes post-dose, equiv. to DHA 50 mg/kg × 10 days
[15] = 90 minutes post-dose, equiv. to DHA 50 mg/kg × 10 days
[16] = 100 minutes post-dose, equiv. to DHA 50 mg/kg × 10 days
[17] = 110 minutes post-dose, equiv. to DHA 50 mg/kg × 10 days
[18] = 120 minutes post-dose, equiv. to DHA 50 mg/kg × 10 days
[19] = equiv. to DHA 50 mg/kg × 10 days

SMILES | Percent increase in DHA content of erythrocyte phospholipids as compared to baseline values: Phosphatidylcholine [1] [%] | Percent increase in DHA content of erythrocyte phospholipids as compared to baseline values: Phosphatidylethanolamine [1] [%] | Percent increase in DHA content of erythrocyte phospholipids as compared to baseline values: Total phospholipids [1] [%] | Percentage reduction, as compared to the controls, of arteriolar thrombus disaggregation time [2, 5] [%] | Percentage reduction, as compared to the controls, of arteriolar thrombus disaggregation time [2, 6] [%] | Percentage reduction, as compared to the controls, of arteriolar thrombus disaggregation time [2, 7] [%] | Percentage reduction, as compared to the controls, of arteriolar thrombus disaggregation time [2, 8] [%] | Percentage reduction, as compared to the controls, of arteriolar thrombus disaggregation time [2, 9] [%] | Percentage reduction, as compared to the controls, of arteriolar thrombus disaggregation time [2, 10] [%] | reduction in disaggregation time [2, 11] | thrombolytic activity (in words) [2] | Percentage reduction, as compared to the controls, of thrombus growth rate induced by ADP [3, 12] [%] | Percentage reduction, as compared to the controls, of thrombus growth rate induced by ADP [3, 13] [%] | Percentage reduction, as compared to the controls, of thrombus growth rate induced by ADP [3, 14] [%] | Percentage reduction, as compared to the controls, of thrombus growth rate induced by ADP [3, 15] [%] | Percentage reduction, as compared to the controls, of thrombus growth rate induced by ADP [3, 16] [%] | Percentage reduction, as compared to the controls, of thrombus growth rate induced by ADP [3, 17] [%] | Percentage reduction, as compared to the controls, of thrombus growth rate induced by ADP [3, 18] [%] | antithrombotic activity (in words) [3] | water solubility [4] | other results
CC/C=C\C/C=C\C/C=C\C/C=C\C/C=C\C/C=C\CCC(=O)O [DHA choline salt] | 146 | 38 | 102 | 31.6 | 32.8 | 35.4 | 37.7 | 28.6 | 29.1 | 37-38% | definitely more active, if given at the same doses | 15.6 | 35.4 | 28.3 | 34.2 | 20.8 | 20.2 | 24.7 | highly active |  | percentage reduction in ADP-induced thrombus growth rate, of the order of max. [3, 19]: 33-34%
CC/C=C\C/C=C\C/C=C\C/C=C\C/C=C\C/C=C\CCC(=O)O [DHA ethanolamine salt] | 113 | 70 | 103 | 30.3 | 34.2 | 34.5 | 38.1 | 30.4 | 29.8 | 37-38% | definitely more active, if given at the same doses | 16.5 | 29.8 | 32.2 | 33.2 | 26.6 | 25.0 | 22.3 | highly active | totally water-soluble | percentage reduction in ADP-induced thrombus growth rate, of the order of max. [3, 19]: 33-34%
CC/C=C\C/C=C\C/C=C\C/C=C\C/C=C\C/C=C\CCC(=O)OCC [DHA ethyl ester, reference compound] | 77 | 10 | 56 |  |  |  |  |  |  |  | highly active |  |  |  |  |  |  |  | moderately active |  | Percentage reduction, as compared to the controls, of arteriolar thrombus disaggregation time ([2]; 60-70 minutes post-dose, 100 mg/kg × 10 days): 21.4%; Percentage reduction, as compared to the controls, of arteriolar thrombus disaggregation time ([2]; 70-80 minutes post-dose, 100 mg/kg × 10 days): 30.5%; Percentage reduction, as compared to the controls, of arteriolar thrombus disaggregation time ([2]; 80-90 minutes post-dose, 100 mg/kg × 10 days): 36.2%; Percentage reduction, as compared to the controls, of arteriolar thrombus disaggregation time ([2]; 90-100 minutes post-dose, 100 mg/kg × 10 days): 32.9%; Percentage reduction, as compared to the controls, of arteriolar thrombus disaggregation time ([2]; 100-110 minutes post-dose, 100 mg/kg × 10 days): 27.8%; Percentage reduction, as compared to the controls, of arteriolar thrombus disaggregation time ([2]; 110-120 minutes post-dose, 100 mg/kg × 10 days): 25.9%; percentage reduction in arteriolar thrombus disaggregation time ([2]; maximum, 100 mg/kg × 10 days): 36.2%; Percentage reduction, as compared to the controls, of thrombus growth rate induced by ADP ([3]; 60 minutes post-dose, 100 mg/kg × 10 days): 5.5%; Percentage reduction, as compared to the controls, of thrombus growth rate induced by ADP ([3]; 70 minutes post-dose, 100 mg/kg × 10 days): 12.5%; Percentage reduction, as compared to the controls, of thrombus growth rate induced by ADP ([3]; 80 minutes post-dose, 100 mg/kg × 10 days): 26.3%; Percentage reduction, as compared to the controls, of thrombus growth rate induced by ADP ([3]; 90 minutes post-dose, 100 mg/kg × 10 days): 17.4%; Percentage reduction, as compared to the controls, of thrombus growth rate induced by ADP ([3]; 100 minutes post-dose, 100 mg/kg × 10 days): 15.1%; Percentage reduction, as compared to the controls, of thrombus growth rate induced by ADP ([3]; 110 minutes post-dose, 100 mg/kg × 10 days): 8.7%; Percentage reduction, as compared to the controls, of thrombus growth rate induced by ADP ([3]; 120 minutes post-dose, 100 mg/kg × 10 days): 14.9%
CC/C=C\C/C=C\C/C=C\C/C=C\C/C=C\C/C=C\CCC(=O)O [DHA sodium salt, reference compound] |  |  |  |  |  |  |  |  |  |  |  |  |  |  |  |  |  |  |  |  | Percent increase in DHA content of erythrocyte phospholipids as compared to baseline values: Phosphatidylcholine ([1]; sodium salt): 93%; Percent increase in DHA content of erythrocyte phospholipids as compared to baseline values: Phosphatidylethanolamine ([1]; sodium salt): 25%; Percent increase in DHA content of erythrocyte phospholipids as compared to baseline values: Total phospholipids ([1]; sodium salt): 75%
CC/C=C\C/C=C\C/C=C\C/C=C\C/C=C\CCCC(=O)O [EPA choline salt] |  |  |  |  |  |  |  |  |  |  |  |  |  |  |  |  |  |  |  | water-soiuble | 
CC/C=C\C/C=C\C/C=C\C/C=C\C/C=C\CCCC(=O)O [EPA ethanolamine salt] |  |  |  |  |  |  |  |  |  |  |  |  |  |  |  |  |  |  |  | highly water-soluble | 
